From EPA's ToxRefDB 2

Key:
rat = details: Combined chronic toxicity/carcinogenicity; fischer; Oral; Feed; dose end: 78 week; group: systemic; systemic / pathology microscopic / spleen / fibrosis
mouse [1] = details: Combined chronic toxicity/carcinogenicity, b6c3f1, Oral, Feed, dose end: 78 week, group: systemic
mouse [2] = details: Prenatal developmental toxicity study, cd1, Oral, Gavage/Intubation, dose end: 15 GD
rabbit = details: Prenatal developmental toxicity study, new zealand white, Oral, Gavage/Intubation, dose end: 19 GD, group: maternal
[3] = systemic / in life observation / body weight / body weight
[4] = systemic / in life observation / body weight / body weight + systemic / pathology microscopic / spleen / hemangiosarcoma
[5] = group: developmental, systemic / in life observation / body weight / fetal weight
[6] = group: maternal, reproductive / reproductive performance / resorptions / resorptions + systemic / in life observation / body weight / body weight gain + …
[7] = systemic / in life observation / mortality / mortality + reproductive / reproductive performance / premature delivery / premature delivery

Nc1ccc(Cl)cc1 [4-Chloroaniline]
LEL (rat): 12.5 mg/kg/day | LOAEL (rat): 12.5 mg/kg/day | NEL (rat): < 12.5 mg/kg/day | NOAEL (rat): < 12.5 mg/kg/day | LOAEL (mouse [1]; [3]): 375 mg/kg/day | NOAEL (mouse [1]; [3]): < 375 mg/kg/day | LEL (mouse [1]; [4]): 375 mg/kg/day | NEL (mouse [1]; [4]): < 375 mg/kg/day

[O]=[Cr](=[O])([OH])[OH] [Chromic(VI) acid]
LEL (mouse [2]; [5]): 120 mg/kg/day | LOAEL (mouse [2]; [5]): > 120 mg/kg/day | NEL (mouse [2]; [5]): 60 mg/kg/day | NOAEL (mouse [2]; [5]): ≥ 120 mg/kg/day | LEL (mouse [2]; [6]): 120 mg/kg/day | LOAEL (mouse [2]; [6]): 120 mg/kg/day | NEL (mouse [2]; [6]): 60 mg/kg/day | NOAEL (mouse [2]; [6]): 60 mg/kg/day | LOAEL (rabbit; systemic / in life observation / mortality / mortality): 2 mg/kg/day | LEL (rabbit; [7]): 2 mg/kg/day | NEL (rabbit; [7]): 0.5 mg/kg/day | NOAEL (rabbit; [7]): 0.5 mg/kg/day
